Source: patent US20230348496A1, “PESTICIDALLY ACTIVE HETEROCYCLIC DERIVATIVES WITH SULFUR CONTAINING SUBSTITUENTS” (SYNGENTA CROP PROTECTION AG, priority 2020, published 2023)

What was measured:
Type in all cases: in vivo
[1] = test system: Diabrotica Balteata (Corn Root Worm); assay: Activity against Diabrotica balteata (corn root worm), sprayed maize sprouts; conditions: 96 h, application rate 200 ppm, L2 larvae on sprayed maize sprouts, 4 days after infestation, read-out: effect in at least one of the two categories (mortality or growth inhibition)
Method: Example B1: Activity Against Diabrotica Balteata (Corn Root Worm)
Maize sprouts placed onto an agar layer in 24-well microtiter plates were treated with aqueous test solutions prepared from 10′000 ppm DMSO stock solutions by spraying. After drying, the plates were infested with L2 larvae (6 to 10 per well). The samples were assessed for mortality and growth inhibition in comparison to untreated samples 4 days after infestation.

[2] = test system: Plutella xylostella (Diamond Back Moth); assay: Activity against Plutella xylostella (diamond back moth); conditions: 192 h, application rate 200 ppm, artificial diet, Plutella eggs, 8 days after infestation, read-out: effect in at least one of the two categories (mortality or growth inhibition)
Method: Example B8: Activity Against Plutella xylostella (Diamond Back Moth)
24-well microtiter plates with artificial diet were treated with aqueous test solutions prepared from 10′000 ppm DMSO stock solutions by pipetting. After drying, Plutella eggs were pipetted through a plastic stencil onto a gel blotting paper and the plate was closed with it. The samples were assessed for mortality and growth inhibition in comparison to untreated samples 8 days after infestation.

[3] = test system: Myzus persicae (Green Peach Aphid); assay: Activity against Myzus persicae (green peach aphid), feeding/contact activity; conditions: foliar, 144 h, application rate 200 ppm, sprayed sunflower leaf discs, aphid population of mixed ages, 6 days after infestation
Method: Example B2: Activity Against Myzus persicae (Green Peach Aphid) Feeding/Contact Activity
Sunflower leaf discs were placed onto agar in a 24-well microtiter plate and sprayed with aqueous test solutions prepared from 10′000 ppm DMSO stock solutions. After drying, the leaf discs were infested with an aphid population of mixed ages. The samples were assessed for mortality 6 days after infestation.

[4] = test system: Spodoptera littoralis (Egyptian Cotton Leaf Worm); assay: Activity against Spodoptera littoralis (Egyptian cotton leaf worm); conditions: foliar, 72 h, application rate 200 ppm, sprayed cotton leaf discs, L1 larvae, 3 days after infestation
Method: Example B3: Activity Against Spodoptera littoralis (Egyptian Cotton Leaf Worm)
Cotton leaf discs were placed onto agar in 24-well microtiter plates and sprayed with aqueous test solutions prepared from 10′000 ppm DMSO stock solutions. After drying the leaf discs were infested with five L1 larvae. The samples were assessed for mortality, anti-feeding effect, and growth inhibition in comparison to untreated samples 3 days after infestation. Control of Spodoptera littoralis by a test sample is given when at least one of the categories mortality, anti-feedant effect, and growth inhibition is higher than the untreated sample.

[5] = test system: Nilaparvata lugens (Brown Plant Hopper); assay: Activity against Nilaparvata lugens (brown plant hopper), larvicide, systemic into water; conditions: 168 h, application rate 12.5 ppm, rice plants in nutritive solution, N3 nymphs, 7 days after infestation
Method: Example B9: Activity Against Nilaparvata lugens (Brown Plant Hopper) Larvicide, Systemic into Water
Rice plants cultivated in a nutritive solution were treated with the diluted test solutions into nourishing cultivation system. 1 day after application plants were infested with ˜20 N3 nymphs. 7 days after infestation samples were assessed for mortality and growth regulation.

[6] = test system: Carpocapsa (Cydia) Pomonella (Codling Moth); assay: Activity against Carpocapsa (Cydia) pomonella (codling moth), larvicide, feeding/contact; conditions: 336 h, application rate 12.5 ppm, sprayed diet cubes, L1 larvae, 14 days after infestation
Method: Example B10: Activity Against Carpocapsa (Cydia) Pomonella (Codling Moth) Larvicide, Feeding/Contact
Diet cubes coated with paraffin were sprayed with diluted test solutions in an application chamber. After drying off the treated cubes (10 replicates) were infested with 1 L1 larvae. Samples were incubated at 26-27° C. and checked 14 days after infestation for mortality and growth inhibition.

[7] = test system: Euschistus heros (Neotropical Brown Stink Bug); assay: Activity against Euschistus heros (neotropical brown stink bug); conditions: 120 h, application rate 200 ppm, sprayed soybean leaves, N2 nymphs, 5 days after infestation, read-out: effect in at least one of the two categories (mortality or growth inhibition)
Method: Example B6: Activity Against Euschistus heros (Neotropical Brown Stink Bug)
Soybean leaves on agar in 24-well microtiter plates were sprayed with aqueous test solutions prepared from 10′000 ppm DMSO stock solutions. After drying the leaves were infested with N2 nymphs. The samples were assessed for mortality and growth inhibition in comparison to untreated samples 5 days after infestation.

[8] = test system: Chilo suppressalis (Striped Rice Stemborer); assay: Activity against Chilo suppressalis (striped rice stemborer); conditions: 144 h, application rate 200 ppm, artificial diet, L2 larvae, 6 days after infestation
Method: Example B5: Activity Against Chilo suppressalis (Striped Rice Stemborer)
24-well microtiter plates with artificial diet were treated with aqueous test solutions prepared from 10′000 ppm DMSO stock solutions by pipetting. After drying, the plates were infested with L2 larvae (6-8 per well). The samples were assessed for mortality, anti-feeding effect, and growth inhibition in comparison to untreated samples 6 days after infestation. Control of Chilo suppressalis by a test sample is given when at least one of the categories mortality, anti-feedant effect, and growth inhibition is higher than the untreated sample.

[9] = test system: Bemisia tabaci (Cotton White Fly); assay: Activity against Bemisia tabaci (cotton white fly); conditions: foliar, 144 h, application rate 200 ppm, sprayed cotton leaf discs, adult white flies, 6 days after incubation
Method: Example B4: Activity Against Bemisia tabaci (Cotton White Fly)
Cotton leaf discs were placed on agar in 24-well microtiter plates and sprayed with aqueous test solutions prepared from 10′000 ppm DMSO stock solutions. After drying the leaf discs were infested with adult white flies. The samples were checked for mortality 6 days after incubation.

[10] = test system: Frankliniella occidentalis (Western Flower Thrips); assay: Activity against Frankliniella occidentalis (western flower thrips); conditions: foliar, 168 h, application rate 200 ppm, sprayed sunflower leaf discs, population of mixed ages, 7 days after infestation
Method: Example B7: Activity Against Frankliniella occidentalis (Western Flower Thrips)
Sunflower leaf discs were placed on agar in 24-well microtiter plates and sprayed with aqueous test solutions prepared from […] stock solutions. After drying the leaf discs were infested with a Frankliniella population of mixed ages. The samples were assessed for mortality 7 days after infestation.

[11] = test system: Myzus persicae (Green Peach Aphid); assay: Myzus persicae (green peach aphid), systemic activity; conditions: 144 h, test rate 24 ppm, roots of infested pea seedlings in test solution, 6 days
Method: Example B11: Myzus persicae (Green Peach Aphid). Systemic Activity
Roots of pea seedlings infested with an aphid population of mixed ages were placed directly into aqueous test solutions prepared from 10′000 DMSO stock solutions. The samples were assessed for mortality 6 days after placing seedlings into test solutions.

CCS(=O)(=O)c1c(N2Cc3ncc(C(F)(F)F)cc3C2=O)nn2cc(C3CC3)ccc12 [Compound P1, 6-(6-cyclopropyl-3-ethylsulfonyl-pyrazolo[1,5-a]pyridin-2-yl)-3-(trifluoromethyl)-7H-pyrrolo[3,4-b]pyridin-5-one]
≥ 80%: percent effect (mortality or growth inhibition) at 200 ppm [1] | percent effect (mortality or growth inhibition) at 200 ppm [2] | mortality at 200 ppm [3] | percent control (mortality, anti-feedant effect or growth inhibition) at 200 ppm [4] | mortality at 12.5 ppm [5] | mortality at 12.5 ppm [6] | percent effect (mortality or growth inhibition) at 200 ppm [7] | percent control (mortality, anti-feedant effect or growth inhibition) at 200 ppm [8]

CCS(=O)(=O)c1c(N2Cc3ccc(OC(F)(F)F)cc3C2=O)nn2ccc(C(F)(F)F)cc12 [Compound P2, 2-[3-ethylsulfonyl-5-(trifluoromethyl)pyrazolo[1,5-a]pyridin-2-yl]-6-(trifluoromethoxy)isoindolin-1-one]
≥ 80%: percent effect (mortality or growth inhibition) at 200 ppm [1] | percent effect (mortality or growth inhibition) at 200 ppm [2] | mortality at 200 ppm [3] | percent control (mortality, anti-feedant effect or growth inhibition) at 200 ppm [4] | mortality at 200 ppm [9] | mortality at 12.5 ppm [6] | percent control (mortality, anti-feedant effect or growth inhibition) at 200 ppm [8]

CCS(=O)(=O)c1c(N2Cc3ccc(S(=O)(=O)C(F)(F)F)cc3C2=O)nn2ccc(C(F)(F)F)cc12 [Compound P3, 2-[3-ethylsulfonyl-5-(trifluoromethyl)pyrazolo[1,5-a]pyridin-2-yl]-6-(trifluoromethylsulfonyl)isoindolin-1-one]
≥ 80%: percent effect (mortality or growth inhibition) at 200 ppm [1] | mortality at 200 ppm [10] | percent effect (mortality or growth inhibition) at 200 ppm [2] | mortality at 200 ppm [3] | percent control (mortality, anti-feedant effect or growth inhibition) at 200 ppm [4] | mortality at 12.5 ppm [6] | percent control (mortality, anti-feedant effect or growth inhibition) at 200 ppm [8]

CCS(=O)(=O)c1c(N2Cc3ncc(C(F)(F)F)cc3C2=O)nn2cc(C3(C#N)CC3)ccc12 [Compound P4, 1-[3-ethylsulfonyl-2-[5-oxo-3-(trifluoromethyl)-7H-pyrrolo[3,4-b]pyridin-6-yl]pyrazolo[1,5-a]pyridin-6-yl]cyclopropanecarbonitrile]
≥ 80%: percent effect (mortality or growth inhibition) at 200 ppm [1] | mortality at 200 ppm [10] | percent effect (mortality or growth inhibition) at 200 ppm [2] | mortality at 200 ppm [3] | percent control (mortality, anti-feedant effect or growth inhibition) at 200 ppm [4] | mortality at 12.5 ppm [5] | mortality at 12.5 ppm [6] | percent effect (mortality or growth inhibition) at 200 ppm [7] | percent control (mortality, anti-feedant effect or growth inhibition) at 200 ppm [8]

CCS(=O)(=O)c1c(N2Cc3ncc(C(F)(F)F)cc3C2=O)nn2ccc(C(F)(F)F)cc12 [Compound P5, 6-[3-ethylsulfonyl-5-(trifluoromethyl)pyrazolo[1,5-a]pyridin-2-yl]-3-(trifluoromethyl)-7H-pyrrolo[3,4-b]pyridin-5-one]
≥ 80%: percent effect (mortality or growth inhibition) at 200 ppm [1] | percent effect (mortality or growth inhibition) at 200 ppm [2] | percent control (mortality, anti-feedant effect or growth inhibition) at 200 ppm [4] | mortality at 12.5 ppm [5] | mortality at 12.5 ppm [6] | percent effect (mortality or growth inhibition) at 200 ppm [7] | percent control (mortality, anti-feedant effect or growth inhibition) at 200 ppm [8]

CCS(=O)(=O)c1c(N2Cc3ncc(C(F)(F)F)cc3C2=O)nn2cc(C(F)(F)F)ccc12 [Compound P6, 6-[3-ethylsulfonyl-6-(trifluoromethyl)pyrazolo[1,5-a]pyridin-2-yl]-3-(trifluoromethyl)-7H-pyrrolo[3,4-b]pyridin-5-one]
≥ 80%: percent effect (mortality or growth inhibition) at 200 ppm [1] | percent effect (mortality or growth inhibition) at 200 ppm [2] | mortality at 200 ppm [3] | percent control (mortality, anti-feedant effect or growth inhibition) at 200 ppm [4] | mortality at 12.5 ppm [5] | mortality at 12.5 ppm [6] | percent control (mortality, anti-feedant effect or growth inhibition) at 200 ppm [8]

CCS(=O)(=O)c1c(N2Cc3ncc(C(F)(F)F)cc3C2=O)nn2cc(C(C)(C)C#N)ccc12 [Compound P7, 2-[3-ethylsulfonyl-2-[5-oxo-3-(trifluoromethyl)-7H-pyrrolo[3,4-b]pyridin-6-yl]pyrazolo[1,5-a]pyridin-6-yl]-2-methyl-propanenitrile]
≥ 80%: percent effect (mortality or growth inhibition) at 200 ppm [1] | mortality at 200 ppm [10] | percent effect (mortality or growth inhibition) at 200 ppm [2] | mortality at 200 ppm [3] | percent control (mortality, anti-feedant effect or growth inhibition) at 200 ppm [4] | mortality at 24 ppm [11] | percent effect (mortality or growth inhibition) at 200 ppm [7] | percent control (mortality, anti-feedant effect or growth inhibition) at 200 ppm [8]
